Columns and labels:
[1] = test system: IL6; test: IL-6 Quantification Assay (ELISA), LPS-stimulated RAW 264.7; assay type: cell-based; parameters: inhibition: dose or concentration left out as unconfirmed; conditions: Mus musculus, RAW264.7; read-out: IL-6: % inh.
[2] = target: T1, Rac-1 (Homo sapiens, UniProt P63000); test: Ras GTP Binding Domain Inhibition Assay (Ras Superfamily Assay); conditions: read-out: Rac-1: % inh.
T1 construct: made in house
Outline: (§1)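 Binding of 100 nM fluorescent GTP (Cy3 or Cy5, 45 min, room temperature) was read after washes from plate-captured His-tagged protein. Beforehand, compounds at 20 μM or in dilution series for IC50 sat 3 h on the protein in Tris buffer pH 7.4 or 7.0 with 1% DMSO, Sos GEF optionally added for the last hour.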

[3] = test system: KRas G12D mutant; test: as above; conditions: for KRas G12D mutant + SOS: % inh.: with SOS; for KRas G12D mutant: % inh.: without SOS
Outline: as §1

[4] = test system: KRas wild type; test: as above; conditions: for KRas wild type + SOS: % inh.: with SOS; for KRas wild type: % inh.: without SOS
Outline: as §1

[5] = test system: MAPK p38 phosphorylation; test: MAPK p38 Activation Assay (western blot), Panc-1; assay type: cell-based, human; conditions: at 10 μM, Panc-1 pancreatic cancer cell line; starred symbols = activation
Description: Protocol for MAPK p38 Activation Assay
This assay is referred to as the “MAPK p38 Activation Assay” throughout this application.
Cell lines: Human tumor-derived pancreatic cancer cell line Panc-1 (expressing KRas G12D mutant) was purchased from American Type Culture Collection and grown in complete DMEM-High Glucose medium, supplemented with penicillin (100 U/mL), streptomycin (100 μg/mL), and 10% heat-inactivated FBS at 37° C. in a humidified incubator with 5% CO2.
Method 1: Cells were plated at 350000 cells/well density in a 12-well plate, allowed 3 hours to adhere to the plate, then starved in the appropriate medium in the presence of 0.5% FBS overnight. The small molecules to be tested were added to the cells in the final concentration of 10 μM in the presence of 0.3% DMSO for 6 hours incubation at 37° C. For IC50 value determination, serial dilutions of compounds were added to cells under the same conditions. Next, cells were stimulated with 1.5 ng/ml EGF for 15 minutes then cells were lysed with lysis buffer containing 1% Triton X-100, EDTA, and Halt™ Protease & Phosphatase Inhibitor Cocktail (Thermo Scientific). Protein concentration was assessed by BCA protein assay (Thermo Scientific). Phosphorylation level of MAPK p38 was determined by western blot.
Method 2: Cells were plated at 350000 cells/well density in a 12-well plate in 10% FBS. The next day small molecules to be tested were added to the cells in the final concentration of 10 μM in the presence of 0.3% DMSO for 6 hours incubation at 37° C. For IC50 value determination, serial dilutions of compounds were added to cells under the same conditions. Next, cells were lysed with lysis buffer containing 1% Triton X-100, EDTA, and Halt™ Protease & Phosphatase Inhibitor Cocktail (Thermo Scientific). Protein concentration was assessed by BCA protein assay (Thermo Scientific). Phosphorylation level of MAPK p38 was determined by western blot.
Western blot protocol: Equal amounts of protein (15-50 μg) were separated by SDS-PAGE and transferred to nitrocellulose membranes (Invitrogen by Thermo Fisher Scientific). The membrane was stained with Ponceau S Stain (Boston BioProducts) to verify uniform protein loading. Membranes were blocked with 10% milk and phosphorylation levels of MAPK p38 were assessed by incubating overnight at 4° C. with the following antibody: Phospho-p38 MAPK (Thr180/Tyr182), from Cell Signaling Technology. Then the membranes were incubated with HRP-conjugated secondary antibody (Jackson Immunoresearch, West Grove, PA). Bands were incubated in Amersham ECL Prime Western Blotting Detection Reagent (GE Healthcare) and visualized using the ChemiDoc MP imaging system (Bio-Rad).

Row | Compound | inhibition [1] [%] | inhibition at 20 µM [2] [%] | KRas G12D mutant + SOS: % inh. ([3]; at 20 μM) | KRas G12D mutant: % inh. ([3]; at 20 μM) | KRas wild type + SOS: % inh. ([4]; at 20 μM) | KRas wild type: % inh. ([4]; at 20 μM) | KRas G12D mutant + SOS: % inh. ([3]; 20 μM compound) | KRas G12D mutant: % inh. ([3]; 20 μM compound) | KRas wild type + SOS: % inh. ([4]; 20 μM compound) | KRas wild type: % inh. ([4]; 20 μM compound) | % inh of MAPK p38 in Panc-1 [5]
1 | Cc1ccc(Nc2nc(-c3nccn3C)nn3cc(-c4ccn(C)n4)c(C)c23)nc1 [Compound 226, 5-Methyl-2-(1-methyl-1H-imidazol-2-yl)-6-(1-methyl-1H-pyrazol-3-yl)-N-(5-methylpyridin-2-yl)pyrrolo[2,1-f][1,2,4]triazin-4-amine] | 50 to 74 | 76 to 100 | D (D = 76-100% inhibition) | D (D = 76-100% inhibition) | D (D = 76-100% inhibition) | D (D = 76-100% inhibition) | – | – | – | – | –
2 | Cc1c(-c2ccn(C)n2)cn2nc(-c3nccn3C)nc(Nc3cc(OCCNC(=O)CCCC[C@H]4SC[C@H]5NC(=O)N[C@H]54)ccn3)c12 [Compound 186, N-(2-((2-((5-Methyl-2-(1-methyl-1H-imidazol-2-yl)-6-(1-methyl-1H-pyrazol-3-yl)pyrrolo[2,1-f][1,2,4]triazin-4-yl)amino)pyridin-4-yl)oxy)ethyl)-5-((3aR,4R,6aS)-2-oxohexahydro-1H-thieno[3,4-d]imidazol-4-yl)pentanamide] | 1 to 24 | 76 to 100 | – | – | – | – | D (D = 76-100% inhibition) | D (D = 76-100% inhibition) | D (D = 76-100% inhibition) | D (D = 76-100% inhibition) | –
3 | COc1cc(Nc2nc(-c3nccn3C)nn3cc(-c4ccn(C)n4)c(C)c23)ncc1C1CC1 [Compound 238, N-(5-Cyclopropyl-4-methoxypyridin-2-yl)-5-methyl-2-(1-methyl-1H-imidazol-2-yl)-6-(1-methyl-1H-pyrazol-3-yl)pyrrolo[2,1-f][1,2,4]triazin-4-amine] | 75 to 100 | 76 to 100 | D (D = 76-100% inhibition) | D (D = 76-100% inhibition) | D (D = 76-100% inhibition) | D (D = 76-100% inhibition) | – | – | – | – | –
4 | COc1ccc(N(C)c2nc(-c3nccn3C)nn3cc(-c4ccn(C)n4)c(C)c23)nc1 [Compound 225, N-(5-Methoxypyridin-2-yl)-N,5-dimethyl-2-(1-methyl-1H-imidazol-2-yl)-6-(1-methyl-1H-pyrazol-3-yl)pyrrolo[2,1-f][1,2,4]triazin-4-amine] | 0 | 1 to 25 | A (A = 1-25% inhibition) | B (B = 26-49% inhibition) | A (A = 1-25% inhibition) | A (A = 1-25% inhibition) | – | – | – | – | –
5 | Cc1c(-c2ccn(C)n2)cn2nc(-c3nccn3C)nc(Nc3ccc(OCC(F)(F)F)cn3)c12 [Compound 230, 5-Methyl-2-(1-methyl-1H-imidazol-2-yl)-6-(1-methyl-1H-pyrazol-3-yl)-N-(5-(2,2,2-trifluoroethoxy)pyridin-2-yl)pyrrolo[2,1-f][1,2,4]triazin-4-amine] | 50 to 74 | 76 to 100 | D (D = 76-100% inhibition) | D (D = 76-100% inhibition) | D (D = 76-100% inhibition) | D (D = 76-100% inhibition) | – | – | – | – | –
6 | CO[C@H]1C[C@H](Nc2nc(-c3nccn3C)nn3cc(-c4cccc(OCCN)c4)c(-c4ccccc4)c23)C1 [Compound 205, 6-(3-(2-Aminoethoxy)phenyl)-N-((1r,3r)-3-methoxycyclobutyl)-2-(1-methyl-1H-imidazol-2-yl)-5-phenylpyrrolo[2,1-f][1,2,4]triazin-4-amine] | – | 1 to 25 | A (A = 1-25% inhibition) | A (A = 1-25% inhibition) | A (A = 1-25% inhibition) | A (A = 1-25% inhibition) | – | – | – | – | G (G = 75-99% inhibition)
7 | COc1cccc(-c2cn3nc(-c4nccn4C)nc(N[C@H]4C[C@H](OC)C4)c3c2-c2ccccc2)c1OC [Compound 219, 6-(2,3-Dimethoxyphenyl)-N-((1r,3r)-3-methoxycyclobutyl)-2-(1-methyl-1H-imidazol-2-yl)-5-phenylpyrrolo[2,1-f][1,2,4]triazin-4-amine] | 75 to 100 | 1 to 25 | 0 (0 = 0% inhibition) | A (A = 1-25% inhibition) | 0 (0 = 0% inhibition) | A (A = 1-25% inhibition) | – | – | – | – | –
8 | Cc1c(-c2ccn(C)n2)cn2nc(-c3nccn3C)nc(Nc3ccc(OC(F)(F)F)cn3)c12 [Compound 232, 5-Methyl-2-(1-methyl-1H-imidazol-2-yl)-6-(1-methyl-1H-pyrazol-3-yl)-N-(5-(trifluoro-methoxy)pyridin-2-yl)pyrrolo[2,1-f][1,2,4]triazin-4-amine] | 25 to 49 | 76 to 100 | D (D = 76-100% inhibition) | D (D = 76-100% inhibition) | D (D = 76-100% inhibition) | D (D = 76-100% inhibition) | – | – | – | – | –
9 | Cc1cnc2c(c1)CCN2c1nc(-c2nccn2C)nn2cc(-c3ccn(C)n3)c(C)c12 [Compound 239, 5-Methyl-2-(1-methyl-1H-imidazol-2-yl)-6-(1-methyl-1H-pyrazol-3-yl)-4-(5-methyl-2,3-dihydro-1H-pyrrolo[2,3-b]pyridin-1-yl)pyrrolo[2,1-f][1,2,4]triazine] | 50 to 74 | 76 to 100 | D (D = 76-100% inhibition) | D (D = 76-100% inhibition) | D (D = 76-100% inhibition) | D (D = 76-100% inhibition) | – | – | – | – | –
10 | COc1cc(Nc2nc(-c3nccn3C)nn3cc(-c4ccn(C)n4)c(C)c23)ncc1F [Compound 237, N-(5-Fluoro-4-methoxypyridin-2-yl)-5-methyl-2-(1-methyl-1H-imidazol-2-yl)-6-(1-methyl-1H-pyrazol-3-yl)pyrrolo[2,1-f][1,2,4]triazin-4-amine] | 0 | 76 to 100 | D (D = 76-100% inhibition) | D (D = 76-100% inhibition) | D (D = 76-100% inhibition) | D (D = 76-100% inhibition) | – | – | – | – | –
11 | Cn1ccnc1-c1nc(O)c2c(-c3ccccc3)c(-c3cccnc3)cn2n1 [Compound 189, 2-(1-Methyl-1H-imidazol-2-yl)-5-phenyl-6-(pyridin-3-yl)pyrrolo[2,1-f][1,2,4]triazin-4-ol] | 0 | 1 to 25 | A (A = 1-25% inhibition) | A (A = 1-25% inhibition) | 0 (0 = 0% inhibition) | 0 (0 = 0% inhibition) | – | – | – | – | –
12 | Cc1c(-c2ccn(C)n2)cn2nc(-c3nccn3C)nc(N)c12 [Compound 211, 5-Methyl-2-(1-methyl-1H-imidazol-2-yl)-6-(1-methyl-1H-pyrazol-3-yl)pyrrolo[2,1-f][1,2,4]triazin-4-amine] | 50 to 74 | 50 to 75 | C (C = 50-75% inhibition) | C (C = 50-75% inhibition) | D (D = 76-100% inhibition) | C (C = 50-75% inhibition) | – | – | – | – | –

Source: patent US12459951B2, “Compounds that interact with RAS superfamily proteins for treatment of cancers, inflammatory diseases, rasopathies, and fibrotic disease” (SHY Therapeutics, LLC, priority 2022, dated 2025)
